Data taken from US20200101068A1, “Heteroaryl Derivatives as PARP Inhibitors” (Lupin Limited, priority 2015, published 2020).

biological target: T1, PARP1 (Homo sapiens, UniProt P09874); assay: PARP1 biochemical assay (BPS Bioscience kit, chemiluminescent); settings: histone-coated plate, biotinylated NAD+, 60 min at 25° C., luminescence; read-out: PARP 1 inhibition IC50
T1 construct: purchased BPS Bioscience
Protocol: Example 16: PARP1 Biochemical Assay
The assay was performed using BPS Bioscience kit. The 96-well strip plate was coated with 50 μl of histone mixture and incubated at 4° C. overnight. The next day, the wells were blocked by adding 100 μl of blocking buffer. The plate was washed and 25 μl of appropriate concentration of PARP1 (25-75 ng/well) was added in all of the Test and Positive control wells. In the Negative control wells, the enzyme was replaced with 25 μl of water. 5 μl each of 10× PARP assay buffer and activated DNA was added in all the wells (Test, Positive and Negative control wells). 10× concentration of the test compounds were prepared and 5 μl test compounds were added to the respective wells. The reaction volume was made up to 45 μl by adding water to all of the wells. 5 μl of 10× PARP assay mixture containing biotinilated NAD^+ was added in each well and the plate was incubated at ambient temperature (25° C.) for 60 min. After washing the plate 50 μl of Streptavidin-HRP was added in each well, the plate was incubated at RT for 30 min. The plate was washed and the luminescence was read in PHERAStar plate reader after adding 100 μl of chemiluminescent substrate.
PARP inhibition was calculated using the following formula:
% PARP inhibition=100−[(RLU test compound treated sample−RLU negative control)/(RLU Positive control−RLU negative control)×100]
IC50 values were calculated by plotting % inhibition against the respective concentrations of test compounds using GraphPad Prism 5.

T1 sequence (P09874 whole entry): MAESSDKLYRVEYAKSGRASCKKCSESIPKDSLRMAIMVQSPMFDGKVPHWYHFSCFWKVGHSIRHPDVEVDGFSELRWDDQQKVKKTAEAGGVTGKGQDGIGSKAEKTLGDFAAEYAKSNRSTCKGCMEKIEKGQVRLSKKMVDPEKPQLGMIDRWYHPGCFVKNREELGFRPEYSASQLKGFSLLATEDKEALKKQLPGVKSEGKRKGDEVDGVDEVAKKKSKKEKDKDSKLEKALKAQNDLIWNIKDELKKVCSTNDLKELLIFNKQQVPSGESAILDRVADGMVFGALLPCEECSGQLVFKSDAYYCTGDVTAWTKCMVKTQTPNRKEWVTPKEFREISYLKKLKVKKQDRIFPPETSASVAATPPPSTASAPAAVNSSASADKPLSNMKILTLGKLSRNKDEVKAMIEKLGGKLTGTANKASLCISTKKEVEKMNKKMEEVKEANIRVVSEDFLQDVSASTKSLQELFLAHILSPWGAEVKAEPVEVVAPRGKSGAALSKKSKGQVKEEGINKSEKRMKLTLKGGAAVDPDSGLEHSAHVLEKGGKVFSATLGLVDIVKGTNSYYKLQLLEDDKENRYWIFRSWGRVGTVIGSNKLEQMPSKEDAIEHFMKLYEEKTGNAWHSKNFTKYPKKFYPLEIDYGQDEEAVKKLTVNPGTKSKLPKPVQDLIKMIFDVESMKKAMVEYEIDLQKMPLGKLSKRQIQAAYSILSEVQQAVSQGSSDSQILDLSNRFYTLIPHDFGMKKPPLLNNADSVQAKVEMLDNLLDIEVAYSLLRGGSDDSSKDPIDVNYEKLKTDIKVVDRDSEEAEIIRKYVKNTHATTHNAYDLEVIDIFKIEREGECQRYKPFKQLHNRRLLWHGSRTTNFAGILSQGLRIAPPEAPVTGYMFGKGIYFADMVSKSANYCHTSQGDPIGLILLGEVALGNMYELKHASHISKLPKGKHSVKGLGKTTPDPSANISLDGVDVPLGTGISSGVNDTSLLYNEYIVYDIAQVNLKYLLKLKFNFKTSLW

SMILES	IC50
C[C@@H]1CN(c2ccc(C#N)cc2)CCN1[C@@H]1C=C(c2cc3ncccc3c(=O)[nH]2)CC1 (racemic) [Compound 15, 4-((R)-3-methyl-4-((S/R)-3-(5-oxo-5,6-dihydro-1,6-naphthyridin-7-yl)cyclopent-2-en-1-yl)piperazin-1-yl)benzonitrile]	5.1 to 50 nM
N#Cc1ccc(N2CCN([C@@H]3CC[C@@H](c4cc5ncccc5c(=O)[nH]4)C3)CC2)cc1 (single isomer, unassigned) [Compound 12]	5.1 to 50 nM
N#Cc1ccc(N2C[C@@H]3C[C@H]2CN3C2C=C(c3cc4ncccc4c(=O)[nH]3)CC2)cc1 (single isomer, unassigned) [Compound 16]	5.1 to 50 nM
N#Cc1ccc(N2CCN([C@@H]3C=C(c4cc5ncccc5c(=O)[nH]4)CC3)CC2)cc1 [Compound 4, (S)-4-(4-(3-(5-oxo-5,6-dihydro-1,6-naphthyridin-7-yl)cyclopent-2-en-1-yl)piperazin-1-yl)benzonitrile]	5.1 to 50 nM
N#Cc1ccc(N2CCN([C@H]3C=C(c4cc5ncccc5c(=O)[nH]4)CC3)CC2=O)cc1 [Compound 13, (R)-4-(2-oxo-4-(3-(5-oxo-5,6-dihydro-1,6-naphthyridin-7-yl)cyclopent-2-en-1-yl)piperazin-1-yl)benzonitrile]	5.1 to 50 nM
Cc1ccc(N2CCN([C@H]3C=C(c4cc5ncccc5c(=O)[nH]4)CC3)CC2)cc1 [Compound 26, (R)-7-(3-(4-(p-tolyl)piperazin-1-yl)cyclopent-1-en-1-yl)-1,6-naphthyridin-5(6H)-one]	0.5 to 5 nM
CNc1ccc(N2CCN([C@H]3C=C(c4cc5ncccc5c(=O)[nH]4)CC3)CC2)cc1 [Compound 27, (R)-7-(3-(4-(4-(methylamino)phenyl)piperazin-1-yl)cyclopent-1-en-1-yl)-1,6-naphthyridin-5(6H)-one]	5.1 to 50 nM
CC(=O)c1ccc(N2CCN([C@H]3C=C(c4cc5ncccc5c(=O)[nH]4)CC3)CC2)cc1 [Compound 28, (R)-7-(3-(4-(4-acetylphenyl)piperazin-1-yl)cyclopent-1-en-1-yl)-1,6-naphthyridin-5(6H)-one]	0.5 to 5 nM
O=C1CCc2cc(N3CCN([C@H]4C=C(c5cc6ncccc6c(=O)[nH]5)CC4)CC3)ccc21 [Compound 29, (R)-7-(3-(4-(1-oxo-2,3-dihydro-1H-inden-5-yl)piperazin-1-yl)cyclopent-1-en-1-yl)-1,6-naphthyridin-5(6H)-one]	0.5 to 5 nM
O=c1[nH]c(C2=C[C@H](N3CCN(c4ccc5c(c4)CCC5)CC3)CC2)cc2ncccc12 [Compound 30, (R)-7-(3-(4-(2,3-dihydro-1H-inden-5-yl)piperazin-1-yl)cyclopent-1-en-1-yl)-1,6-naphthyridin-5(6H)-one]	0.5 to 5 nM
O=C1OCc2cc(N3CCN([C@H]4C=C(c5cc6ncccc6c(=O)[nH]5)CC4)CC3)ccc21 [Compound 31, (R)-7-(3-(4-(1-oxo-1,3-dihydroisobenzofuran-5-yl)piperazin-1-yl)cyclopent-1-en-1-yl)-1,6-naphthyridin-5(6H)-one]	0.5 to 5 nM
O=C1NCc2cc(N3CCN([C@H]4C=C(c5cc6ncccc6c(=O)[nH]5)CC4)CC3)ccc21 [Compound 32, (R)-7-(3-(4-(1-oxoisoindolin-5-yl)piperazin-1-yl)cyclopent-1-en-1-yl)-1,6-naphthyridin-5(6H)-one]	0.5 to 5 nM
O=c1[nH]c(C2=C[C@H](N3CCN(c4ccc(C(F)(F)F)cc4)CC3)CC2)cc2ncccc12 [Compound 33, (R)-7-(3-(4-(4-(trifluoromethyl)phenyl)piperazin-1-yl)cyclopent-1-en-1-yl)-1,6-naphthyridin-5(6H)-one]	5.1 to 50 nM
N#Cc1ccc(N2CCN([C@H]3C=C(c4cc5ncccc5c(=O)[nH]4)CC3)CC2)nc1 [Compound 34, (R)-6-(4-(3-(5-oxo-5,6-dihydro-1,6-naphthyridin-7-yl)cyclopent-2-en-1-yl)piperazin-1-yl)nicotinonitrile]	0.5 to 5 nM
N#Cc1cnc(N2CCN([C@H]3C=C(c4cc5ncccc5c(=O)[nH]4)CC3)CC2)s1 [Compound 35, (R)-2-(4-(3-(5-oxo-5,6-dihydro-1,6-naphthyridin-7-yl)cyclopent-2-en-1-yl)piperazin-1-yl)thiazole-5-carbonitrile]	0.5 to 5 nM

Now from value to molecule:

IC50	SMILES
0.5 to 5 nM	N#Cc1ccc(N2CCN([C@@H]3CC[C@H](c4cc5ncccc5c(=O)[nH]4)C3)CC2)cc1 (single isomer, unassigned) [Compound 11]
0.5 to 5 nM	C[C@@H]1CN(c2ccc(C#N)cc2)CCN1C1C=C(c2cc3ncccc3c(=O)[nH]2)CC1 (single isomer, unassigned) [Compound 14]
0.5 to 5 nM	N#Cc1ccc(N2CCN([C@H]3C=C(c4cc5ncccc5c(=O)[nH]4)CC3)CC2)cc1 [Compound 1, (R)-4-(4-(3-(5-oxo-5,6-dihydro-1,6-naphthyridin-7-yl)cyclopent-2-en-1-yl)piperazin-1-yl)benzonitrile]
0.5 to 5 nM	N#Cc1ccc(N2CCN([C@H]3C=C(c4cc5ncc(F)cc5c(=O)[nH]4)CC3)CC2)cc1 [Compound 2, (R)-4-(4-(3-(3-fluoro-5-oxo-5,6-dihydro-1,6-naphthyridin-7-yl)cyclopent-2-en-1-yl)piperazin-1-yl)benzonitrile]
0.5 to 5 nM	Cc1ccccc1N1CCN([C@H]2C=C(c3cc4ncccc4c(=O)[nH]3)CC2)CC1 [Compound 3, (R)-7-(3-(4-(o-tolyl)piperazin-1-yl)cyclopent-1-en-1-yl)-1,6-naphthyridin-5(6H)-one]
0.5 to 5 nM	Cc1ccc2c(=O)[nH]c(C3=C[C@H](N4CCN(c5ccc(C#N)cc5)CC4)CC3)cc2n1 [Compound 6, (R)-4-(4-(3-(2-methyl-5-oxo-5,6-dihydro-1,6-naphthyridin-7-yl)cyclopent-2-en-1-yl)piperazin-1-yl)benzonitrile]
0.5 to 5 nM	N#Cc1ccc(N2CCN([C@H]3C=C(c4cc5ncc(N)cc5c(=O)[nH]4)CC3)CC2)cc1 [Compound 7, (R)-4-(4-(3-(3-amino-5-oxo-5,6-dihydro-1,6-naphthyridin-7-yl)cyclopent-2-en-1-yl)piperazin-1-yl)benzonitrile]
0.5 to 5 nM	N#Cc1ccc(N2CCN([C@H]3C=C(c4[nH]c(=O)c5cccnc5c4[N+](=O)[O-])CC3)CC2)cc1 [Compound 8, (R)-4-(4-(3-(8-nitro-5-oxo-5,6-dihydro-1,6-naphthyridin-7-yl)cyclopent-2-en-1-yl)piperazin-1-yl)benzonitrile]
0.5 to 5 nM	Cc1c(C2=C[C@H](N3CCN(c4ccc(C#N)cc4)CC3)CC2)[nH]c(=O)c2cccnc12 [Compound 9, (R)-4-(4-(3-(8-methyl-5-oxo-5,6-dihydro-1,6-naphthyridin-7-yl)cyclopent-2-en-1-yl)piperazin-1-yl)benzonitrile]
0.5 to 5 nM	Cc1c(C2=C[C@@H](N3CCN(c4ccc(C#N)cc4)CC3)CC2)[nH]c(=O)c2cccnc12 [Compound 10, (S)-4-(4-(3-(8-methyl-5-oxo-5,6-dihydro-1,6-naphthyridin-7-yl)cyclopent-2-en-1-yl)piperazin-1-yl)benzonitrile]
0.5 to 5 nM	CNC(=O)c1ccc(N2CCN([C@H]3C=C(c4cc5ncccc5c(=O)[nH]4)CC3)CC2)cc1 [Compound 18, (R)—N-methyl-4-(4-(3-(5-oxo-5,6-dihydro-1,6-naphthyridin-7-yl)cyclopent-2-en-1-yl)piperazin-1-yl)benzamide]
0.5 to 5 nM	NC(=O)c1ccc(N2CCN([C@H]3C=C(c4cc5ncccc5c(=O)[nH]4)CC3)CC2)cc1 [Compound 19, (R)-4-(4-(3-(5-oxo-5,6-dihydro-1,6-naphthyridin-7-yl)cyclopent-2-en-1-yl)piperazin-1-yl)benzamide]
0.5 to 5 nM	CCOC(=O)c1ccc(N2CCN([C@H]3C=C(c4cc5ncccc5c(=O)[nH]4)CC3)CC2)cc1 [Compound 20, Ethyl (R)-4-(4-(3-(5-oxo-5,6-dihydro-1,6-naphthyridin-7-yl)cyclopent-2-en-1-yl)piperazin-1-yl)benzoate]
0.5 to 5 nM	O=c1[nH]c(C2=C[C@H](N3CCN(c4ccccc4)CC3)CC2)cc2ncccc12 [Compound 21, (R)-7-(3-(4-phenylpiperazin-1-yl)cyclopent-1-en-1-yl)-1,6-naphthyridin-5(6H)-one]
0.5 to 5 nM	O=c1[nH]c(C2=C[C@H](N3CCN(c4ccc(F)cc4)CC3)CC2)cc2ncccc12 [Compound 22, (R)-7-(3-(4-(4-fluorophenyl)piperazin-1-yl)cyclopent-1-en-1-yl)-1,6-naphthyridin-5(6H)-one]
0.5 to 5 nM	N#Cc1ccc(N2CCN([C@H]3C=C(c4cc5ncccc5c(=O)[nH]4)CC3)CC2)c(F)c1 [Compound 23, (R)-3-fluoro-4-(4-(3-(5-oxo-5,6-dihydro-1,6-naphthyridin-7-yl)cyclopent-2-en-1-yl)piperazin-1-yl)benzonitrile]
0.5 to 5 nM	O=c1[nH]c(C2=C[C@H](N3CCN(c4ccc(Cl)cc4)CC3)CC2)cc2ncccc12 [Compound 24, (R)-7-(3-(4-(4-chlorophenyl)piperazin-1-yl)cyclopent-1-en-1-yl)-1,6-naphthyridin-5(6H)-one]
0.5 to 5 nM	COc1ccc(N2CCN([C@H]3C=C(c4cc5ncccc5c(=O)[nH]4)CC3)CC2)cc1 [Compound 25, (R)-7-(3-(4-(4-methoxyphenyl)piperazin-1-yl)cyclopent-1-en-1-yl)-1,6-naphthyridin-5(6H)-one]
